Patent US11993660B2, “Chimeric polypeptides and methods of altering the membrane localization of the same” (Cell Design Labs, Inc., priority 2017, dated 2024)

System: Primary human T cells expressing FMC63-CAR with ERa LBD fusion
Assay: Brefeldin A block of ligand-induced surface trafficking
Type: cell-based
Conditions: 1 uM pre-treatment; then 500 ng/mL 4-OHT two hours
Method: Primary human T cells expressing FMC63-CAR with ERa LBD fusion were left untreated or were treated with 500 ng/mL 4-OHT ligand for two hours to induce surface expression of the CAR. Prior to 4-OHT treatment, half the cells were pre-treated with 1 uM Brefeldin A (FIG. 12, bottom two panels) to inhibit protein export from the Golgi.

For `C[C@H]1CCC/C=C/[C@@H]2C[C@H](O)C[C@H]2[C@H](O)/C=C/C(=O)O1` [Brefeldin A], which “effect on 4-OHT-induced surface protein expression” value is on record?
Its value is “prevented 4-OHT-induced increase in surface protein expression”.
